Reference: ChEMBL document CHEMBL1201862, “PubChem BioAssay data set” (2004)
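48-hour exposure; five concentrations; linearly interpolated endpoints. Abbreviation: GI50, concentration required for 50% inhibition of growth.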 The source made the active and inactive calls. Rule as the data show it: active = GI50 up to about 1.1 µM and inactive = higher.

Assays:
Assay in all cases: DTP human tumour cell line panel, 48 h
DLD-1 = tested on: DLD-1
KM-20L2 = tested on: KM-20L2
LXFL 529 = tested on: LXFL 529
SNB-78 = tested on: SNB-78
DMS-114 = tested on: DMS-114
HOP-18 = tested on: HOP-18
RXF 631 = tested on: RXF 631
XF498 = tested on: XF498
DMS-273 = tested on: DMS-273

SMILES | GI50 (DLD-1) | GI50 (KM-20L2) | GI50 (LXFL 529) | GI50 (SNB-78) | GI50 (DMS-114) | GI50 (HOP-18) | GI50 (RXF 631) | GI50 (XF498) | GI50 (DMS-273)
O=C(Nc1c(O)[nH]c(=S)[nH]c1=O)c1ccc2ccccc2n1 | > 100 µM (inactive) | > 100 µM (inactive) | > 100 µM (inactive) | > 100 µM (inactive) | > 100 µM (inactive) | > 100 µM (inactive) | > 100 µM (inactive) |  | 
COc1ccc(/C=C/C(=O)C(C)C)cc1 | 63.1 µM (inactive) | 25.1 µM (inactive) | 21.7 µM (inactive) | 14.9 µM (inactive) | 15.2 µM (inactive) | 41.4 µM (inactive) |  | > 100 µM (inactive) | 38.5 µM (inactive)
CC(=O)NC(CCCCN(Cc1ccccc1)C(=O)NCCCl)C(=O)NCc1ccccc1 (centres undefined) | > 100 µM (inactive) | > 100 µM (inactive) | > 100 µM (inactive) |  | > 100 µM (inactive) | 29.1 µM (inactive) | > 100 µM (inactive) |  | > 100 µM (inactive)
Nc1ncnc2c1ncn2C1CC(OC2CCCCO2)C(CO)O1 (centres undefined) | > 100 µM (inactive) | > 100 µM (inactive) | > 100 µM (inactive) | > 100 µM (inactive) | > 100 µM (inactive) | > 100 µM (inactive) |  | > 100 µM (inactive) | > 100 µM (inactive)
CCOC(=O)CN1C(=O)c2cccc3cc([N+](=O)[O-])cc(c23)C1=O | 2.21 µM (inactive) | 13.3 µM (inactive) | 1.71 µM (inactive) | 5.82 µM (inactive) | 2.28 µM (inactive) | 19.7 µM (inactive) |  | 2.03 µM (inactive) | 
COC(=O)/C(=N/NC(N)=O)C(C(=O)OC)C(=O)C(=O)Nc1ccc(Cl)cc1 (centres undefined) | > 100 µM (inactive) | > 100 µM (inactive) | > 100 µM (inactive) |  | > 71.8 µM (inactive) | > 100 µM (inactive) |  | > 100 µM (inactive) | > 100 µM (inactive)
CCOc1cccc2c1N[S@@](=O)S2 | > 100 µM (inactive) | > 100 µM (inactive) | 58.7 µM (inactive) | > 100 µM (inactive) |  |  | > 100 µM (inactive) | 78.7 µM (inactive) | > 100 µM (inactive)
Cc1c2cc[n+](COC(=O)c3ccccc3)cc2c(C)c2c1[nH]c1ccccc12 |  | 0.641 µM (active) | 0.506 µM (active) | 1.32 µM (inactive) | 0.75 µM (active) | < 0.01 µM (active) |  | 1.62 µM (inactive) | 
O=c1cc(-c2ccccc2)[nH]c2cc(F)cc(F)c12 | 28.5 µM (inactive) |  | 53.6 µM (inactive) |  | 24.7 µM (inactive) | 43 µM (inactive) |  |  | 10.3 µM (inactive)
NC1CCCCC1.O=P(O)(O)C1(P(=O)(O)O)CC1 |  | > 100 µM (inactive) | > 100 µM (inactive) | > 100 µM (inactive) | > 100 µM (inactive) |  |  | > 100 µM (inactive) | > 100 µM (inactive)
O=C(Nc1cccc(Cl)c1)C(=O)C(C(=O)c1ccc2ccccc2c1)C1OC(=O)c2ccccc21 (centres undefined) | 16.3 µM (inactive) | 33.7 µM (inactive) | 7.48 µM (inactive) | 5.9 µM (inactive) | 11.5 µM (inactive) | 12.1 µM (inactive) | 16.9 µM (inactive) |  | 24.7 µM (inactive)
CN[C@@H](C)[C@H](N)c1ccccc1 | > 100 µM (inactive) |  | > 100 µM (inactive) | > 100 µM (inactive) |  | > 100 µM (inactive) | > 100 µM (inactive) |  | > 100 µM (inactive)
CCCCCCCCCC(=O)OCC1OC(n2cc(F)c(=O)[nH]c2=O)C(N)C(OC(=O)CCCCCCCCC)C1O (centres undefined) |  | 19 µM (inactive) | 16.6 µM (inactive) | 15.8 µM (inactive) | 15.7 µM (inactive) |  |  |  | 20.4 µM (inactive)
CC(=O)NC1=C(C)C(=O)c2c(nc3n2CCC3O)C1=N (centres undefined) | 11.6 µM (inactive) | 19.5 µM (inactive) |  | 3.05 µM (inactive) | 3.4 µM (inactive) | 17.6 µM (inactive) |  | 3.81 µM (inactive) | 17.8 µM (inactive)
